Series [1] concerns the target T1, human 5-HT2CR (Homo sapiens, UniProt P28335).
T1 sequence (P28335 33-458): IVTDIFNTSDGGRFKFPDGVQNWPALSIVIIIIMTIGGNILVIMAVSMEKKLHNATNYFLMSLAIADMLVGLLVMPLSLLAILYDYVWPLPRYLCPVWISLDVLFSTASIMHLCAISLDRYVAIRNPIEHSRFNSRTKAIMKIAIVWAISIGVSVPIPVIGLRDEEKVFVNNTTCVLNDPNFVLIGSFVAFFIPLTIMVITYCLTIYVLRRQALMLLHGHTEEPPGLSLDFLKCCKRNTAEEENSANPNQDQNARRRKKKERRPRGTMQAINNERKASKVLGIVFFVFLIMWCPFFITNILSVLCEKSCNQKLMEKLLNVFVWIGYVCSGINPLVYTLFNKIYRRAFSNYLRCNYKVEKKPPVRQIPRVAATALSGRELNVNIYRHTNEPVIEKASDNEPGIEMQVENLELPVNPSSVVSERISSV

In series [2] the target is T2, human 5-HT2BR (Homo sapiens, UniProt P41595). Conditions: commercially available compounds known to bind 5-HT2BR; ref Roth et al., 2000; read-out: 5-HT2BR (nM), Table S3; cited from earlier work.
T2 sequence (P41595 whole entry): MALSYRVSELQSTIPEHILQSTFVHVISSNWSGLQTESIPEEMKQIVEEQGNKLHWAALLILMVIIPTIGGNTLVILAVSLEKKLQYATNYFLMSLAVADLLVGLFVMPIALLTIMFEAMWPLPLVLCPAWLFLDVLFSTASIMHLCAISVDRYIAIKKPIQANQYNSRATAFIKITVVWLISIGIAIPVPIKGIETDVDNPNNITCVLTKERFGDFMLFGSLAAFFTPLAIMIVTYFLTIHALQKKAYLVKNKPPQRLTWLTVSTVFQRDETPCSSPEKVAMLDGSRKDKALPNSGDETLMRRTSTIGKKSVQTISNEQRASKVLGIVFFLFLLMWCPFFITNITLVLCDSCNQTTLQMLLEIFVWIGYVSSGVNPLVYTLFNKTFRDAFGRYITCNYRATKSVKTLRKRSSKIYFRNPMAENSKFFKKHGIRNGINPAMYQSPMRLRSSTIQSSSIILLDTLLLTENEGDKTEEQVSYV
Another series has as its system scn1lab mutant zebrafish. The series can be described thus: locomotion (mean swim velocity) seizure-like behaviour assay in scn1lab mutant zebrafish larvae. In kind it is in vivo, Danio rerio. Conditions: for effect on seizure-like swim behaviour, commercially available compounds: three concentrations, 30 and 90 min exposure; for change in vivo at 100 µM / change in vivo at 250 µM: Danio rerio. As for the experimental part: (§1) For locomotion studies, zebrafish larvae (5 days post-fertilization) were placed into a single well of a clear flat-bottomed 96-well microplate containing embryo media. Sex determination is not possible at this stage of development. All drug screening experiments were conducted in an unbiased manner by investigators blinded to the test compounds and all files coded for post hoc analysis. The 96-well plate containing larvae was then placed inside a DanioVision box where they were allowed to acclimate (20 min; room temperature). EthoVision XT software (DanioVision, Noldus Information Technology) was used to obtain locomotion plots (10 min in duration). Seizure scoring was performed, as described ([Baraban et al., 2005]). All locomotion plots were analysed for distance travelled (in millimetres) and mean velocity (in millimetres per second). After 90 min of drug exposure larvae were examined for toxic side-effects. Compounds that decreased or stopped the larva heartbeat, or reduced or eliminated the escape response when touched, were considered toxic.
For behaviour analysis, the threshold for a change in mean swim velocity ≥40% is considered significant (>1.5× SD of 250 control treated scn1lab). Unless otherwise indicated, all data in this manuscript are presented as the mean ± standard error of the mean. […] Statistically significant differences are indicated with asterisks (*P < 0.05; **P < 0.01; ***P < 0.001). […]

In series [3] the target is T3, human 5-HT2AR (Homo sapiens, UniProt P28223). Conditions: read-out: 5-HT2AR (nM), Table S3, cited from earlier work.
T3 sequence (P28223 whole entry): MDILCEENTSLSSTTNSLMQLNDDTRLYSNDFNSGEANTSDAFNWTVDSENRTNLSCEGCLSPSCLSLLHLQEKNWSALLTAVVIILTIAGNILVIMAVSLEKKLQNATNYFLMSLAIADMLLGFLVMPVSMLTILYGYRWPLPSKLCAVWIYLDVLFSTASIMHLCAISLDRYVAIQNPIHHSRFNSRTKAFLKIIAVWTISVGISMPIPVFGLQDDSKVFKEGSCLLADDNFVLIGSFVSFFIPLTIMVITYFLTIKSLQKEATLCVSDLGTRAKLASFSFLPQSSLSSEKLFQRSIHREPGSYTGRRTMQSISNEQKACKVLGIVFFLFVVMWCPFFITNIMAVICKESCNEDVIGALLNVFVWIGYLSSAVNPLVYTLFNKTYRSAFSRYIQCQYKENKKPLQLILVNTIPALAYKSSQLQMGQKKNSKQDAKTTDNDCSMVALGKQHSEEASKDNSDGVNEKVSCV
Series [4] deals with T2, human 5-HT2BR. The series can be described thus: radioligand binding (NIMH PDSP). Conditions: read-out: Ki 5-HT2BR. As for the experimental part:
(§2) All in vitro binding assay and Ki data studies were performed by the US National Institute of Mental Health Psychoactive Drug Screening Program (NIMH PDSP). For these studies, drugs were screened against recombinant, stably expressed human 5-HT2AR, 5-HT2BR, 5-HT2CR and H1, as described at https://pdspdb.unc.edu/pdspWeb/ ([Besnard et al., 2012]).

The target of the next series is human H1 (Homo sapiens, UniProt P35367). In words: radioligand binding (NIMH PDSP). The settings on record: read-out: Ki H1. As for the experimental part:
as §2

Series [5] has as its target T3, human 5-HT2AR. The series can be described thus: radioligand binding (NIMH PDSP). The method, then:
as §2

The target of series [6] is T1, human 5-HT2CR. The series can be described thus: radioligand binding (NIMH PDSP). The method, then: as §2
The subject of series [7] is scn1lab mutant zebrafish larvae. In words: toxicity check of larvae after 90 min drug exposure (heartbeat, escape response). The settings on record: 90 min exposure. The class given is in vivo, Danio rerio. The method, then:
as §1, with “Seizure scoring was performed, as described ([Baraban et al., 2005]).” left out

The mark [8] stands for this setting: commercially available compounds known to bind 5-HT2BR; ref Roth et al., 2000; read-out: 5-HT2CR (nM), Table S3; cited from earlier work.
Setting [9] is: commercially available compounds known to bind 5-HT2BR, ref Roth et al., 2000.
[10] abbreviates: read-out: % change in velocity, individual larva 1 (heat map).
[11] abbreviates: read-out: % change in velocity, individual larva 2 (heat map).
Where [12] appears, read: read-out: % change in velocity, individual larva 3 (heat map).
Setting [13] is: read-out: % change in velocity, individual larva 4 (heat map).
Where [14] appears, read: read-out: % change in velocity, individual larva 5 (heat map).
[15] abbreviates: read-out: % change in velocity, individual larva 6 (heat map).
The mark [16] stands for this setting: read-out: mean velocity change from six fish, Trial 1.
[17] abbreviates: read-out: mean velocity change from six fish, Trial 2.
Where [18] appears, read: read-out: 5-HT2CR (nM), Table S3; commercially available compounds known to bind 5-HT2BR; ref Roth et al., 2000; cited from earlier work.

Like-named read-outs stand apart in the source and are kept apart here. Bounds are passed on as bounds.

Consider seven molecules from paper PMC6798786 (Brain Communications, 2019).

Sequence of human H1 (P35367 whole entry): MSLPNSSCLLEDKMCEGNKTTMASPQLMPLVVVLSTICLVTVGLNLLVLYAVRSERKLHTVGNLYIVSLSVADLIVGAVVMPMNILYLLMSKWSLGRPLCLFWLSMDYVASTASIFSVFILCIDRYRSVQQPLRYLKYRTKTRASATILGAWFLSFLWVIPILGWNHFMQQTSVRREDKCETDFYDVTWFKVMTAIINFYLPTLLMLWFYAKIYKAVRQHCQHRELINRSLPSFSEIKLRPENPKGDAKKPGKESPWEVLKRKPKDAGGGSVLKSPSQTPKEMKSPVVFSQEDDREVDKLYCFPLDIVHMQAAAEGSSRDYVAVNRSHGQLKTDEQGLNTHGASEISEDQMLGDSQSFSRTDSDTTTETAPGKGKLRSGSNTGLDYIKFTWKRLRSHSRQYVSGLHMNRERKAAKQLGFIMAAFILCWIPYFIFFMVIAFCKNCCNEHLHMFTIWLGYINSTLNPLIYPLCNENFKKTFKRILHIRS

On to `Clc1cccc(COc2cncc(N3CCNCC3)n2)c1` [CP-809,101], for which the Ki on human 5-HT2CR [1] (setting [8]) is 64 nM; on human 5-HT2BR [2], 6 nM; on human 5-HT2AR [3] (setting [9]), 1.6 nM. Also, the “effect on seizure-like swim behaviour, commercially available compounds” value (“effect … commercially available compounds” below) in the series with scn1lab mutant zebrafish is given as “biphasic response”.

Regarding `Clc1ccc(Cn2ccnc2CN2CCCC2)cc1` [Compound 9], the Ki on human 5-HT2BR [4] was > 10000 nM; at human H1, 29 nM; on human 5-HT2AR [5] it was > 10000 nM; on human 5-HT2CR [6], 447 nM. The “effect on seizure-like swim behaviour, initial library screen” value in the series on scn1lab mutant zebrafish (100 µM or 250 µM, UCSF-synthesized compound) is “effective in suppressing”. For the same molecule, the change in vivo at 100 µM in the series on scn1lab mutant zebrafish (setting [10]) was -13.5%; in the series with scn1lab mutant zebrafish (setting [11]), -0.7%; with scn1lab mutant zebrafish (setting [12]), -34.9%; with scn1lab mutant zebrafish (setting [13]) it was -57.3%; in the series on scn1lab mutant zebrafish (setting [14]), 34.4%; in the series with scn1lab mutant zebrafish (setting [15]), -33.2%. The change in vivo at 100 µM in the series on scn1lab mutant zebrafish (setting [16]) and in the series with scn1lab mutant zebrafish (setting [17]) was -28.1% throughout. The change in vivo at 250 µM was -94% in the series with scn1lab mutant zebrafish (setting [10]); -100% with scn1lab mutant zebrafish (setting [11]); -22.5% in the series on scn1lab mutant zebrafish (setting [12]); -100% in the series on scn1lab mutant zebrafish (setting [13]); -38.8% with scn1lab mutant zebrafish (setting [14]); -100% in the series on scn1lab mutant zebrafish (setting [15]). The figures for the change in vivo at 250 µM in the series on scn1lab mutant zebrafish (setting [16]) and with scn1lab mutant zebrafish (setting [17]) were -73.2% and -100%, respectively. The “toxicity at 250 µM” value in [7] was “toxic”.

On to `CCN(CC)Cc1nc2ccccc2n1Cc1ccc(Cl)cc1` [Compound 24], for which the Ki on human 5-HT2BR [4] amounted to 115 nM; on human H1, 3.7 nM; on human 5-HT2AR [5], 1260 nM; on human 5-HT2CR [6] it was 1410 nM. Also, the change in vivo at 100 µM is 67.6% in the series with scn1lab mutant zebrafish (setting [10]); 330% with scn1lab mutant zebrafish (setting [11]); -70.1% with scn1lab mutant zebrafish (setting [12]); -28% with scn1lab mutant zebrafish (setting [13]); -30.1% in the series with scn1lab mutant zebrafish (setting [14]); -3.9% in the series on scn1lab mutant zebrafish (setting [15]). Also, the change in vivo at 100 µM in the series on scn1lab mutant zebrafish (setting [16]) and in the series on scn1lab mutant zebrafish (setting [17]) was 3.5% throughout. Further, the change in vivo at 250 µM is -100% with scn1lab mutant zebrafish (setting [10]); -100% with scn1lab mutant zebrafish (setting [11]); -90% in the series on scn1lab mutant zebrafish (setting [12]); -100% with scn1lab mutant zebrafish (setting [13]); -100% in the series with scn1lab mutant zebrafish (setting [14]); -100% in the series with scn1lab mutant zebrafish (setting [15]). The change in vivo at 250 µM in the series on scn1lab mutant zebrafish (setting [16]) is -98.7%. Also, the “toxicity in initial analogue screening” value in [7] (100 µM or 250 µM) is on record as “toxic”.

Turning to `C[C@H](N)Cn1ccc2cc(F)c(Cl)cc21` [Ro 60-0175], the Ki at human 5-HT2CR [1] (setting [8]) is 9.1 nM; on human 5-HT2BR [2], 4.3 nM; at human 5-HT2AR [3], 37.2 nM. For the same molecule, the “effect … commercially available compounds” value with scn1lab mutant zebrafish is reported as “borderline effective”.

Take `Br.CN(C)C1CCc2cc(O)c(O)cc2C1` (stereo not shown) [TL-99]: the Ki on human 5-HT2CR [1] (setting [8]) is 2290 nM; at human 5-HT2BR [2], 2040 nM; on human 5-HT2AR [3] (setting [9]), 2340 nM. For the same molecule, the “effect … commercially available compounds” value in the series with scn1lab mutant zebrafish is “failed to elicit any behavioural effect”.

Consider `C=CCN1C[C@H](C(=O)N(CCCN(C)C)C(=O)NCC)C[C@@H]2c3cccc4[nH]cc(c34)C[C@H]21` [cabergoline, Cabergoline], for which the Ki on human 5-HT2CR [1] (setting [18]) is 692 nM; on human 5-HT2AR [3] (setting [9]) it was 6.17 nM. In addition, in the series with scn1lab mutant zebrafish (250 µM), the “effect on convulsive swim behaviour at 250 µM” value is recorded as “significantly reduced convulsive swim behaviour”.

Consider `c1cnc(N2CCN(Cc3ccc4c(c3)OCO4)CC2)nc1` [piribedil, Piribedil, reference compound], for which the Ki at human 5-HT2CR [1] (setting [18]) and at human 5-HT2AR [3] (setting [9]) was > 10000 nM in each case. In series [7] (100 µM), the “toxicity at 100 µM” value is “toxicity”. Besides, the “toxicity at 250 µM” value in [7] is listed as “toxicity”.
